Key:
[1] = target: T1, DNA (cytosine-5)-methyltransferase 3A (Mus musculus, UniProt O88508); assay: Inhibition of murine DNMT3A catalytic domain-mediated DNA methylation using 5'-6FAM-tagged 30-mer duplex DNA (17 AT bp) as substrate preincubated for 30 mins followed by enzyme addition
[2] = target: DNA (cytosine-5)-methyltransferase 3A (Mus musculus) (UniProt O88508); assay: Inhibition of murine DNMT3A catalytic domain-mediated DNA methylation using 5'-6FAM-tagged 30-mer duplex DNA (17 AT bp) as substrate at 60 uM preincubated for 30 mins followed by enzyme addition relative to control
[3] = target: DNA (cytosine-5)-methyltransferase 3A (Homo sapiens, UniProt Q9Y6K1); assay: Binding affinity to DNMT3A catalytic domain (unknown origin) assessed as inhibition of enzyme-mediated DNA methylation preincubated for 1 hr followed by enzyme addition measured after 1 hr in presence of AdoMet by PAGE analysis
Chain of DNA (cytosine-5)-methyltransferase 3A (Homo sapiens, UniProt Q9Y6K1) (Q9Y6K1 whole entry, looked up, the tested form may be a part): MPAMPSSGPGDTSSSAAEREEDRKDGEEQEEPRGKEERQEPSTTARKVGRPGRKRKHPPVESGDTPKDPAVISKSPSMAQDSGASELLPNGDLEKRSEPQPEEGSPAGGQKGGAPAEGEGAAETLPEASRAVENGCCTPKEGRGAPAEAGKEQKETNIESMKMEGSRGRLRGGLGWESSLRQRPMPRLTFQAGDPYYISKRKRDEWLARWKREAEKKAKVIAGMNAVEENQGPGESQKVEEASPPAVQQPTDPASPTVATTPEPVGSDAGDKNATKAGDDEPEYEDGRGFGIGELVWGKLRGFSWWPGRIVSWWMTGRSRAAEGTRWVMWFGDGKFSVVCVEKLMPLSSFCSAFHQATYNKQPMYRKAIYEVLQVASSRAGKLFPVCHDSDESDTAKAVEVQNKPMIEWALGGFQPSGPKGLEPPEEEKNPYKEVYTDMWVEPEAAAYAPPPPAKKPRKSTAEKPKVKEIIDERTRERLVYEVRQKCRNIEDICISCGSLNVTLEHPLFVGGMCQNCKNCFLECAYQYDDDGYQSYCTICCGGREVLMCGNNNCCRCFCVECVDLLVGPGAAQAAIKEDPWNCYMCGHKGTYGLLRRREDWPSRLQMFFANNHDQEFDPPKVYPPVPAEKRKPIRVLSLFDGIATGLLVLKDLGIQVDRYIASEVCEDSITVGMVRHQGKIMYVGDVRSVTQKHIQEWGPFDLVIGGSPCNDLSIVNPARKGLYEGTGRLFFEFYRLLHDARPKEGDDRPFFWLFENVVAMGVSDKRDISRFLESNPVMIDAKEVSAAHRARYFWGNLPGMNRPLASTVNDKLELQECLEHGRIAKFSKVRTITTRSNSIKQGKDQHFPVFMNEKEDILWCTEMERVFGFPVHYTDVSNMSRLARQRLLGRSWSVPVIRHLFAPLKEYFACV

DNA [4] = assay: Binding affinity to 5'-6FAM-tagged 30-mer duplex DNA (22 AT bp) (unknown origin) assessed as dissociation constant for complound-DNA complex by fluorescence polarization assay; assay type: nucleic-acid assay
DNA [5] = assay: Binding affinity to 5'-6FAM-tagged 30-mer duplex DNA (17 AT bp) (unknown origin) assessed as dissociation constant for complound-DNA complex by fluorescence polarization assay; assay type: nucleic-acid assay
[6] = target: DNA (cytosine-5)-methyltransferase 3A (Mus musculus) (UniProt O88508); assay: Binding affinity to murine DNMT3A catalytic domain assessed as fold reduction in compound fluorescence at 5 uM by dialysis method relative to control
[7] = target: DNA (cytosine-5)-methyltransferase 3A (Mus musculus) (UniProt O88508); assay: Inhibition of murine DNMT3A catalytic domain-mediated DNA methylation using 5'-6FAM-tagged 30-mer duplex DNA (22 AT bp) as substrate at 60 uM preincubated for 30 mins followed by enzyme addition relative to control
[8] = target: T1, DNA (cytosine-5)-methyltransferase 3A; assay: Inhibition of murine DNMT3A catalytic domain-mediated DNA methylation using 5'-6FAM-tagged 30-mer duplex DNA (22 AT bp) as substrate preincubated for 30 mins followed by enzyme addition

| Structure (SMILES) | IC50 [1] | inhibition [2] | IC50 [3] | Kd (DNA [4]) | Kd (DNA [5]) | fold change (FC) [6] | inhibition [7] | IC50 [8] |
| --- | --- | --- | --- | --- | --- | --- | --- | --- |
| COc1cccc2c1C(=O)c1c(O)c3c(c(O)c1C2=O)C[C@@](O)(C(=O)CO)C[C@@H]3O[C@H]1C[C@H](N)[C@H](O)[C@H](C)O1 [DOXORUBICIN] | 3 µM | 70% | – | – | – | – | – | – |
| CCC1/C=C/C=C/C[C@H](C)[C@@H](O)[C@](C)(O)C(=O)[C@@H](C)[C@H](O)[C@@H](C)C(=O)[C@H](C)[C@@H](O)[C@H](C)/C=C/C(=O)OC2[C@@H](C)C(CC1)OC1(CC[C@@H](C)C(C[C@H](C)O)O1)[C@@H]2C (stereo not given in full) | – | – | 6 µM | – | – | – | – | – |
| CC(=O)c1ccc2c(c1)c1cc(C(C)=O)ccc1n2CCNC(C)C | 9 µM | 80% | – | 34 µM | 20 µM | 20 | 51% | 5 µM |
